Data reported in publication PMC6001238, “Iterative Chemical Engineering of Vancomycin Leads to Novel Vancomycin Analogs With a High in Vitro Therapeutic Index” (Frontiers in Microbiology, 2018).
Values after ≈ are worked out from the molar mass of the structure shown.

Legend:
E. faecalis VSE 1 = test: MIC, broth microdilution, vancomycin-sensitive E. faecalis (VSE 1); format: cell-based, Enterococcus faecalis; conditions: for MIC: Enterococcus faecalis VSE 1 (vancomycin-sensitive), read-out: MIC; for MIC-fold improvement vs. vancomycin: VSE 1, ratio of MIC of vancomycin and MIC of analogue
Procedure, shortened: (§1)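 MIC values come from broth microdilution run to CLSI susceptibility-testing standards. Ultrapure water and uninoculated broth served as controls. In one series, vancomycin at a final 10 μM was co-dosed with the analogue or comparator antibiotic.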

E. faecalis VRE 6 = test: MIC, broth microdilution, vancomycin-resistant E. faecalis VRE 6 (VanA); format: cell-based, Enterococcus faecalis; conditions: for MIC: Enterococcus faecalis VRE 6 (vancomycin-resistant), read-out: MIC; for MIC-fold improvement vs. vancomycin: VRE 6, ratio of MIC of vancomycin and MIC of analogue
Procedure, shortened: as §1

E. faecalis VRE 53 = test: MIC, broth microdilution, vancomycin-resistant E. faecalis VRE 53 (VanA); format: cell-based, Enterococcus faecalis; conditions: for MIC: Enterococcus faecalis VRE 53 (vancomycin-resistant), read-out: MIC; for MIC-fold improvement vs. vancomycin: VRE 53, ratio of MIC of vancomycin and MIC of analogue
Procedure, shortened: as §1

E. faecalis VRE 29 = test: MIC, broth microdilution, vancomycin-resistant E. faecalis VRE 29 (VanA); format: cell-based, Enterococcus faecalis; conditions: for MIC: Enterococcus faecalis VRE 29 (vancomycin-resistant), read-out: MIC; for MIC-fold improvement vs. vancomycin: VRE 29, ratio of MIC of vancomycin and MIC of analogue
Procedure, shortened: as §1

E. faecalis VRE 37 = test: MIC, broth microdilution, vancomycin-resistant E. faecalis VRE 37 (VanA); format: cell-based, Enterococcus faecalis; conditions: for MIC: Enterococcus faecalis VRE 37 (vancomycin-resistant), read-out: MIC
Procedure, shortened: as §1

[1] = system: Murine leukemia (L1210) cells; test: Cytostatic activity, L1210 cell proliferation; format: cell-based; conditions: mean ± SD of three experiments; highest concentration tested 250 µM; 2 days; read-out: Toxicity (IC50) L1210
Procedure, shortened: (§2)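 Test compounds, serially diluted, received an equal volume of cell suspension at 300,000–500,000 cells/mL. After 37°C incubation (2 days for L1210, 3 for CEM, 4 for HeLa), cells were enumerated by Coulter counting and 50%-inhibitory concentrations calculated per cell type.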

[2] = system: human T-lymphocyte (CEM) cells; test: Cytostatic activity, CEM cell proliferation; format: cell-based; conditions: mean ± SD of three experiments; highest concentration tested 250 µM; 3 days; read-out: Toxicity (IC50) CEM
Procedure, shortened: as §2

[3] = system: human cervix carcinoma (HeLa) cells; test: Cytostatic activity, HeLa cell proliferation; format: cell-based; conditions: mean ± SD of three experiments; highest concentration tested 250 µM; 4 days; read-out: Toxicity (IC50) HeLa
Procedure, shortened: as §2

[4] = system: L1210, CEM and HeLa cell lines; test: Cytostatic activity, average or summary over L1210, CEM and HeLa; format: cell-based; conditions: average of L1210, CEM and HeLa; read-out: Toxicity (IC50) Average
Procedure, shortened: as §2

[5] = system: S. aureus VSSA (ATCC 6538); test: MIC, broth microdilution, vancomycin-sensitive S. aureus (VSSA/MSSA, ATCC 6538); format: cell-based, Staphylococcus aureus; conditions: for MIC: Staphylococcus aureus VSSA, read-out: MIC; for MIC-fold improvement vs. vancomycin: VSSA, ratio of MIC of vancomycin and MIC of analogue
Procedure, shortened: as §1

S. aureus VISA/HIP5827 = test: MIC, broth microdilution, vancomycin-intermediate S. aureus VISA HIP5827; format: cell-based, Staphylococcus aureus; conditions: for MIC: Staphylococcus aureus VISA/HIP5827, read-out: MIC; for MIC-fold improvement vs. vancomycin: VISA/HIP5827, ratio of MIC of vancomycin and MIC of analogue
Procedure, shortened: as §1

S. aureus VRSA = test: MIC, broth microdilution, vancomycin-resistant S. aureus (VRSA); format: cell-based, Staphylococcus aureus; conditions: for MIC: Staphylococcus aureus VRSA, read-out: MIC; for MIC-fold improvement vs. vancomycin: VRSA, ratio of MIC of vancomycin and MIC of analogue
Procedure, shortened: as §1

MRSA KS2 = test: MIC, broth microdilution, MRSA KS2; format: cell-based, Staphylococcus aureus; conditions: for MIC-fold improvement vs. vancomycin: MRSA KS2, ratio of MIC of vancomycin and MIC of analogue; for MIC: Staphylococcus aureus MRSA KS2, read-out: MIC
Procedure, shortened: as §1

MRSA KS6 = test: MIC, broth microdilution, MRSA KS6; format: cell-based, Staphylococcus aureus; conditions: for MIC-fold improvement vs. vancomycin: MRSA KS6, ratio of MIC of vancomycin and MIC of analogue; for MIC: Staphylococcus aureus MRSA KS6, read-out: MIC
Procedure, shortened: as §1

MRSA KS89 = test: MIC, broth microdilution, MRSA KS89; format: cell-based, Staphylococcus aureus; conditions: for MIC-fold improvement vs. vancomycin: MRSA KS8, ratio of MIC of vancomycin and MIC of analogue; for MIC: Staphylococcus aureus MRSA KS8, read-out: MIC
Procedure, shortened: as §1

MRSA KS1 = test: MIC, broth microdilution, MRSA KS1; format: cell-based, Staphylococcus aureus; conditions: for MIC-fold improvement vs. vancomycin: MRSA KS1, ratio of MIC of vancomycin and MIC of analogue; for MIC: Staphylococcus aureus MRSA KS1, read-out: MIC
Procedure, shortened: as §1

Row | Structure (SMILES) | MIC (E. faecalis VSE 1) | MIC-fold improvement vs. vancomycin (E. faecalis VSE 1) | MIC (E. faecalis VRE 6) | MIC-fold improvement vs. vancomycin (E. faecalis VRE 6) | MIC (E. faecalis VRE 53) | MIC-fold improvement vs. vancomycin (E. faecalis VRE 53) | MIC (E. faecalis VRE 29) | MIC-fold improvement vs. vancomycin (E. faecalis VRE 29) | MIC (E. faecalis VRE 37) | IC50 [1] | IC50 [2] | IC50 [3] | IC50 [4] | MIC [5] | MIC-fold improvement vs. vancomycin [5] | MIC (S. aureus VISA/HIP5827) | MIC-fold improvement vs. vancomycin (S. aureus VISA/HIP5827) | MIC (S. aureus VRSA) | MIC-fold improvement vs. vancomycin (S. aureus VRSA) | MIC-fold improvement vs. vancomycin (MRSA KS2) | other results
1 | CN[C@H](CC(C)C)C(=O)N[C@H]1C(=O)N[C@@H](CC(N)=O)C(=O)N[C@H]2C(=O)N[C@H]3C(=O)N[C@H](C(=O)N[C@H](C(=O)NCC(=O)Nc4ccc(C)cc4C)c4cc(O)cc(O)c4-c4cc3ccc4O)[C@H](O)c3ccc(c(Cl)c3)Oc3cc2cc(c3O[C@@H]2O[C@H](CO)[C@@H](O)[C@H](O)[C@H]2O[C@H]2C[C@](C)(N)[C@H](O)[C@H](C)O2)Oc2ccc(cc2Cl)[C@H]1O [Vanc-15] | 1.56 µM (≈ 2.51 µg/mL) | 1 | 6.25 µM (≈ 10.1 µg/mL) | 32 | 25 µM (≈ 40.2 µg/mL) | 16 | 12.5 µM (≈ 20.1 µg/mL) | 32 | 25 µM (≈ 40.2 µg/mL) | > 250 µM | > 250 µM | 87 ± 12 µM | 196 µM | 0.78 µM (≈ 1.26 µg/mL) | 1 | 1.56 µM (≈ 2.51 µg/mL) | 4 | 12.5 µM (≈ 20.1 µg/mL) | 8 | 2 | MIC-fold improvement vs. vancomycin (E. faecalis VRE 37; VRE 37, ratio of MIC of vancomycin and MIC of analogue): 16; MIC (MRSA KS2): 0.39 µM (≈ 0.628 µg/mL); MIC-fold improvement vs. vancomycin (MRSA KS6): 1; MIC (MRSA KS6): 0.78 µM (≈ 1.26 µg/mL); MIC-fold improvement vs. vancomycin (MRSA KS89): 1; MIC (MRSA KS89): 0.78 µM (≈ 1.26 µg/mL); MIC-fold improvement vs. vancomycin (MRSA KS1): 1; MIC (MRSA KS1): 0.78 µM (≈ 1.26 µg/mL)
2 | CNC(CC(C)C)C(=O)NC1C(=O)NC(CC(N)=O)C(=O)NC2C(=O)NC3C(=O)NC(C(=O)NC(C(=O)NCCCNC(=O)c4ccc5ccccc5n4)c4cc(O)cc(O)c4-c4cc3ccc4O)C(O)c3ccc(c(Cl)c3)Oc3cc2cc(c3OC2OC(CO)C(O)C(O)C2OC2CC(C)(N)C(O)C(C)O2)Oc2ccc(cc2Cl)C1O (stereo not shown) [Vanc-27] | 0.39 µM (≈ 0.648 µg/mL) | 4 | 3.13 µM (≈ 5.2 µg/mL) | 64 | 25 µM (≈ 41.5 µg/mL) | 16 | 12.5 µM (≈ 20.8 µg/mL) | 32 | 12.5 µM (≈ 20.8 µg/mL) | > 250 µM | 229 ± 30 µM | 76 ± 8 µM | 185 µM | 0.39 µM (≈ 0.648 µg/mL) | 2 | 0.39 µM (≈ 0.648 µg/mL) | 16 | 6.25 µM (≈ 10.4 µg/mL) | 16 | 2 | MIC (MRSA KS2): 0.39 µM (≈ 0.648 µg/mL); MIC-fold improvement vs. vancomycin (MRSA KS6): 2; MIC (MRSA KS6): 0.39 µM (≈ 0.648 µg/mL); MIC-fold improvement vs. vancomycin (MRSA KS89): 1; MIC (MRSA KS89): 0.78 µM (≈ 1.3 µg/mL); MIC-fold improvement vs. vancomycin (MRSA KS1): 2; MIC (MRSA KS1): 0.39 µM (≈ 0.648 µg/mL)
